Read-outs that look alike come from different tables or passages of the source.
Tests used:
MT2 receptor = target: T1, MT2 receptor (Homo sapiens, UniProt P49286); conditions: at 100×10^−7 M
T1 sequence (P49286 1-362): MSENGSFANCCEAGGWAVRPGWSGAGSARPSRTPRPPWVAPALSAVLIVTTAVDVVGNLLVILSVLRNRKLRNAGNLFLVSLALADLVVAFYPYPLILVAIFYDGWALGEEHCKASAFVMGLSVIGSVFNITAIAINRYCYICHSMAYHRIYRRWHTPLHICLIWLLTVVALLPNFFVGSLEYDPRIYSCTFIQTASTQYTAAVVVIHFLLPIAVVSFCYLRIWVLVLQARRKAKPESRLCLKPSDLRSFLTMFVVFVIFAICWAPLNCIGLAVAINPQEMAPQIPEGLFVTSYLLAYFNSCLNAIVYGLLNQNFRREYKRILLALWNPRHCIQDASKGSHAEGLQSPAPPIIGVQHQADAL
Procedure: (§1) Each of those receptors were analyzed by methods known in the art. Initial assessment of binding at 100×10^−7 M (10 micro molar) was performed in duplicate.

[1] = target: melatonin MT-1 sub-receptor (Homo sapiens, UniProt P48039); conditions: Table 7
Chain of melatonin MT-1 sub-receptor (P48039 whole entry): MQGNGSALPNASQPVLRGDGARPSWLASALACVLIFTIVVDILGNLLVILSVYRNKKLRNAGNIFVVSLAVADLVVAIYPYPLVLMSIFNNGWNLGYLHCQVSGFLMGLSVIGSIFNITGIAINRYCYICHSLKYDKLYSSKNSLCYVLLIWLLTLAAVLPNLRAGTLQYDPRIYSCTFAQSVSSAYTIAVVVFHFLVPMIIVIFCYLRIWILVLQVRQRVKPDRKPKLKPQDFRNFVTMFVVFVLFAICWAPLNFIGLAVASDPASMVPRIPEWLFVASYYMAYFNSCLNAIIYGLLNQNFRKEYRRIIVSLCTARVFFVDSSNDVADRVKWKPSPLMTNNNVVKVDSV
Procedure: as §1

5-HT2B receptor = target: T2, 5-HT2B receptor (Homo sapiens, UniProt P41595); assay: 5-HT2B binding affinity, human recombinant-CHO cells, 5-HT as control (Bonhaus); conditions: for IC50: agonist 5-HT2B receptor
T2 construct: expressed in transfected cells; host or cells: CHO cells
T2 sequence (P41595 whole entry): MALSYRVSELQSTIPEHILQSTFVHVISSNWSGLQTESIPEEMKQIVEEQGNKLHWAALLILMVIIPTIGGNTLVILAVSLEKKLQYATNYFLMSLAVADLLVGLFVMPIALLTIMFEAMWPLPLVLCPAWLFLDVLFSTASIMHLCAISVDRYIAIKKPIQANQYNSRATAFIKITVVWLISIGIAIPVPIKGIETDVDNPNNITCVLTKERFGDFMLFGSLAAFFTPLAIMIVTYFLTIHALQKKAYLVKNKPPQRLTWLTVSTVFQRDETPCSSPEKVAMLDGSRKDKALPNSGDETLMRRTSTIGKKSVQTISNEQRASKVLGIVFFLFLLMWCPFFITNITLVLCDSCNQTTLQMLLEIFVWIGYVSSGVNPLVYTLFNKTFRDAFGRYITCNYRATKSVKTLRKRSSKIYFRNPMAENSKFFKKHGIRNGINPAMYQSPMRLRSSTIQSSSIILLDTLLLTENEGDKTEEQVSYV
Procedure: as §1

melatonin ML-1 [2] = assay: ML1 binding affinity, chicken brain; conditions: Table 2; relative potency compared to CCB
Procedure: as §1

melatonin ML-1 [3] = target: T3, melatonin ML-1; assay: ML1 binding affinity, chicken brain; conditions: Table 1; chicken brain
T3 construct: chicken brain
Procedure: as §1

Row | Compound | percentage of binding MT2 (MT2 receptor) [%] | % Binding MT-1 ([1]; at 0.1 ×10^−7 M) [%] | % Binding MT-1 ([1]; at 0.3 ×10^−7 M) [%] | % Binding MT-1 ([1]; at 1.0 ×10^−7 M) [%] | % Binding MT-1 ([1]; at 3.0 ×10^−7 M) [%] | IC50 (5-HT2B receptor; Table 1) [nM] | percentage of binding 5-HT2B (5-HT2B receptor; Table 1, at 100×10^−7 M) [%] | (IC50: 5-HT2B)/(IC50: CCB) (5-HT2B receptor; Table 2, relative potency compared to CCB) | (IC50: ML-1)/(IC50: CCB) (melatonin ML-1 [2]) | IC50 (melatonin ML-1 [3]) [nM]
1 | COc1ccc(CCN(C)CCC[C@](C#N)(c2ccc(OC)c(OC)c2)C(C)C)cc1OC [R-verapamil, (R)-verapamil] | 0 | 13 | 35 | 67 | 83 |  |  |  |  | 
2 | CCOC(=O)C1=C(C)NC(C)=C(C(=O)OC)C1c1cccc(Cl)c1Cl (centres unmarked) [Felodipine] |  |  |  |  |  | 1300 |  |  |  | 
3 | COC(=O)C1=C(C)NC(C)=C(C(=O)OC(C)C)C1c1cccc2nonc12 (centres unmarked) [Isradipine] |  |  |  |  |  | > 10000 | 3 | 21,739 | 4,348 | 2000

From US20090023814A1, “COMPOSITIONS AND METHODS HAVING MT1 RECEPTOR ACTIVITY” (AGI Therapeutics Research Ltd., priority 2007, published 2009)
